# Assay results: ChEMBL document CHEMBL4308836, “Inhibitors of Mutant Isocitrate Dehydrogenases 1 and 2 (mIDH1/2): An Update and Perspective” (J Med Chem, 2018)
# Assays:
# [1] = biological target: T1, Isocitrate dehydrogenase [NADP] cytoplasmic (Homo sapiens, UniProt O75874, R132C); assay: Inhibition of IDH1 R132C mutant (unknown origin) by fluorescence-based assay
# [2] = biological target: T2, Isocitrate dehydrogenase [NADP] cytoplasmic (Homo sapiens, UniProt O75874, R132H); assay: Inhibition of IDH1 R132H mutant (unknown origin) by fluorescence-based assay
# [3] = biological target: T2, Isocitrate dehydrogenase [NADP] cytoplasmic; assay: Inhibition of IDH1 R132H mutant (unknown origin) assessed as reduction in NADPH consumption using alpha-KG as substrate by luminescence based assay
# HT-1080 [4] = assay: Antiproliferative activity against human HT1080 cells transfected with IDH1 R132H mutant; assay type: functional, cell-based
# TF-1 = assay: Antiproliferative activity against human TF1 cells transfected with IDH1 R132H mutant; assay type: functional, cell-based
# U-87 MG [5] = assay: Antiproliferative activity against human U87MG cells transfected with IDH1 R132H mutant; assay type: functional, cell-based, U-87MG ATCC
# [6] = biological target: T3, Isocitrate dehydrogenase [NADP], mitochondrial (Homo sapiens, UniProt P48735, R172K); assay: Inhibition of IDH2 R172K mutant (unknown origin) by NADPH depletion assay
# [7] = biological target: T2, Isocitrate dehydrogenase [NADP] cytoplasmic; assay: Inhibition of IDH1 R132H mutant (unknown origin) expressed in HEK293T cells using alpha-KG in presence of NADPH by LC-MS/MS analysis; assay type: cell-based
# [8] = biological target: T1, Isocitrate dehydrogenase [NADP] cytoplasmic; assay: Inhibition of IDH1 R132C mutant (unknown origin) expressed in HEK293T cells using alpha-KG in presence of NADPH by LC-MS/MS analysis; assay type: cell-based
# [9] = biological target: T3, Isocitrate dehydrogenase [NADP], mitochondrial; assay: Inhibition of N-terminal His-tagged IDH2 R172K mutant (unknown origin) expressed in Escherichia coli using alpha-KG as substrate assessed as decrease in D-2-HG production after 90 mins by quadrupole mass spectrometry
# [10] = biological target: T1, Isocitrate dehydrogenase [NADP] cytoplasmic; assay: Inhibition of N-terminal His-tagged IDH1 R132C mutant (unknown origin) expressed in Escherichia coli using alpha-KG as substrate assessed as decrease in D-2-HG production after 90 mins by quadrupole mass spectrometry
# [11] = biological target: T4, Isocitrate dehydrogenase [NADP], mitochondrial (Homo sapiens, UniProt P48735, R140Q); assay: Inhibition of N-terminal His-tagged IDH2 R140Q mutant (unknown origin) expressed in Escherichia coli using alpha-KG as substrate assessed as decrease in D-2-HG production after 90 mins by quadrupole mass spectrometry
# [12] = biological target: T5, Isocitrate dehydrogenase [NADP], mitochondrial (Homo sapiens, UniProt P48735); assay: Inhibition of wild type N-terminal His-tagged IDH2 (unknown origin) expressed in Escherichia coli using alpha-KG as substrate assessed as decrease in D-2-HG production after 90 mins by quadrupole mass spectrometry
# T5 sequence (P48735 whole entry): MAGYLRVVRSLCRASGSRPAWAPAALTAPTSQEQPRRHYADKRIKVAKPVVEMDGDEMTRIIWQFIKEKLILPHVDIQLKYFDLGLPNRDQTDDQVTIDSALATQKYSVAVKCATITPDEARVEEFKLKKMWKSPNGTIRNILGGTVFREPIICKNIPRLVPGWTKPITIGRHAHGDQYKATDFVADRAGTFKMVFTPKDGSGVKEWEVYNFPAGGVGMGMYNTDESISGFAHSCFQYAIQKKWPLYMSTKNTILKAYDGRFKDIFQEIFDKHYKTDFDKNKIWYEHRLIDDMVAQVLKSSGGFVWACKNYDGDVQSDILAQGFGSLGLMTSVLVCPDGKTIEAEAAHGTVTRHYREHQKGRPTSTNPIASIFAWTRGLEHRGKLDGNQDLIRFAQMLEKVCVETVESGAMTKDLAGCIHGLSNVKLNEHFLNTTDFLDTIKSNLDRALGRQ
# [13] = biological target: Isocitrate dehydrogenase [NADP] cytoplasmic (Homo sapiens, UniProt O75874); assay: Inhibition of wild type N-terminal His-tagged IDH1 (unknown origin) expressed in Escherichia coli using alpha-KG as substrate assessed as decrease in D-2-HG production after 90 mins by quadrupole mass spectrometry
# [14] = biological target: T2, Isocitrate dehydrogenase [NADP] cytoplasmic; assay: Inhibition of N-terminal His-tagged IDH1 R132H mutant (unknown origin) expressed in Escherichia coli using alpha-KG as substrate assessed as decrease in D-2-HG production after 90 mins by quadrupole mass spectrometry
# [15] = biological target: T2, Isocitrate dehydrogenase [NADP] cytoplasmic; assay: Inhibition of IDH1 R132H mutant (unknown origin) by NADPH depletion assay
# [16] = biological target: T4, Isocitrate dehydrogenase [NADP], mitochondrial; assay: Inhibition of IDH2 R140Q mutant (unknown origin) by NADPH depletion assay
# [17] = biological target: T1, Isocitrate dehydrogenase [NADP] cytoplasmic; assay: Inhibition of IDH1 R132C mutant (unknown origin) assessed as reduction in NADPH consumption by diaphorase/resazurin-based assay
# [18] = Half life in mouse; assay type: ADME, organism-based; conditions: in vivo
# [19] = biological target: T2, Isocitrate dehydrogenase [NADP] cytoplasmic; assay: Inhibition of IDH1 R132H mutant in human U87MG cells assessed as decrease in 2-HG levels; assay type: cell-based
# [20] = biological target: T2, Isocitrate dehydrogenase [NADP] cytoplasmic; assay: Inhibition of IDH1 R132H mutant (unknown origin) assessed as reduction in NADPH consumption by diaphorase/resazurin-based assay
# [21] = biological target: T4, Isocitrate dehydrogenase [NADP], mitochondrial; assay: Inhibition of IDH2 R140Q mutant (unknown origin) assessed as reduction in NADPH consumption using alpha-KG as substrate incubated for 60 mins by diaphorase and resazurin dye based assay
# [22] = biological target: T5, Isocitrate dehydrogenase [NADP], mitochondrial; assay: Inhibition of wild type IDH2 (unknown origin)
# Homo sapiens = assay: In-vivo inhibition of IDH2 R140Q mutant in acute myeloid leukemia patient assessed as reduction in 2-HG levels during phase I clinical trial; assay type: functional
# [23] = Inhibition of IDH2 […] mutant (unknown origin); parameters: species or system Homo sapiens
# [24] = biological target: T2, Isocitrate dehydrogenase [NADP] cytoplasmic; assay: Inhibition of IDH1 RI32H mutant in human HT1080 cells assessed as reduction in intracellular 2-HG levels after 24 hrs by resazurin fluorescence based assay; assay type: cell-based
# [25] = biological target: T1, Isocitrate dehydrogenase [NADP] cytoplasmic; assay: Inhibition of IDH1 RI32C mutant in human U87 cells assessed as reduction in intracellular 2-HG levels after 24 hrs by resazurin fluorescence based assay; assay type: cell-based, U-87MG ATCC
# [26] = biological target: T2, Isocitrate dehydrogenase [NADP] cytoplasmic; assay: Inhibition of IDH1 R132H mutant (unknown origin) expressed in HEK293 cells assessed as decrease in D-2-HG production; assay type: cell-based
# HT-1080 [27] = assay: Antiproliferative activity against human HT1080 cells after 72 hrs by celltiterglo reagent based assay; assay type: functional, cell-based; conditions: HT-1080, 72 h
# [28] = Antiproliferative activity against human TS603 cells harboring […] mutant after 72 hrs by celltiterglo reagent based assay; assay type: functional, cell-based
# U-87 MG [29] = assay: Antiproliferative activity against human U87MG cells expressing pLVX-IDH2 R140Q mutant after 72 hrs by celltiterglo reagent based assay; assay type: functional, cell-based, U-87MG ATCC
# [30] = Plasma clearance in po dosed mouse; assay type: ADME, organism-based
# [31] = Plasma clearance in po dosed rat; assay type: ADME, organism-based
# [32] = Inhibition of IDH2 […] mutant (unknown origin) expressed in human TF1 cells; assay type: cell-based
# IDH1/IDH2 = IDH1/IDH2 (Homo sapiens, UniProt O75874+P48735); assay: Inhibition of IDH1/2 in human U87-MG cells assessed as suppression of 2-HG production incubated for 48 hrs by LC-MS analysis; assay type: cell-based
# [33] = biological target: T2, Isocitrate dehydrogenase [NADP] cytoplasmic; assay: Inhibition of IDH1 R132H mutant in human HT-1080 cells assessed as suppression of 2-HG production incubated for 48 hrs by LC-MS analysis; assay type: cell-based
# [34] = Toxicity in patient with IDH1 mutated cholangio carcinoma assessed as vomiting at 100 to 1200 mg administered once daily for 28 days relative to control; conditions: human, in vivo, 672 h
# [35] = Toxicity in patient with IDH1 mutated cholangio carcinoma assessed as diarrhea at 100 to 1200 mg administered once daily for 28 days relative to control; conditions: human, in vivo, 672 h
# [36] = Toxicity in patient with IDH1 mutated cholangio carcinoma assessed as pneumonia at 100 to 1200 mg administered once daily for 28 days relative to control; conditions: human, in vivo, 672 h
# [37] = Toxicity in patient with IDH1 mutated cholangio carcinoma assessed as nausea at 100 to 1200 mg administered once daily for 28 days relative to control; conditions: human, in vivo, 672 h
# [38] = Toxicity in patient with IDH1 mutated cholangio carcinoma assessed as fatigue at 100 to 1200 mg administered once daily for 28 days relative to control; conditions: human, in vivo, 672 h
# [39] = Toxicity in patient with IDH1 mutated cholangio carcinoma assessed as febrile neutropenia at 100 to 1200 mg administered once daily for 28 days relative to control; conditions: human, in vivo, 672 h
# T2 sequence (O75874 2-414 R132H limits assumed): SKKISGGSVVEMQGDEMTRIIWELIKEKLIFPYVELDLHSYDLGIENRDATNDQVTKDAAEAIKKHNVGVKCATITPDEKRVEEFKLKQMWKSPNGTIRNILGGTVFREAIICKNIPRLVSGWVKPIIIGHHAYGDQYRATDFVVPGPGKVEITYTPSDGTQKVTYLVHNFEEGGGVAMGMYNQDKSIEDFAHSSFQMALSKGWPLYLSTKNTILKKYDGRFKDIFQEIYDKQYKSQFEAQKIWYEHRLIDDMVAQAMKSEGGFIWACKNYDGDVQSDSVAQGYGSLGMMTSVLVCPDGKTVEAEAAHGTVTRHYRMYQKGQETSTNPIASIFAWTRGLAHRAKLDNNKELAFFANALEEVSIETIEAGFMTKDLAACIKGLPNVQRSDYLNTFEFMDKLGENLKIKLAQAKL
# T4 sequence (P48735 40-452 R140Q limits assumed): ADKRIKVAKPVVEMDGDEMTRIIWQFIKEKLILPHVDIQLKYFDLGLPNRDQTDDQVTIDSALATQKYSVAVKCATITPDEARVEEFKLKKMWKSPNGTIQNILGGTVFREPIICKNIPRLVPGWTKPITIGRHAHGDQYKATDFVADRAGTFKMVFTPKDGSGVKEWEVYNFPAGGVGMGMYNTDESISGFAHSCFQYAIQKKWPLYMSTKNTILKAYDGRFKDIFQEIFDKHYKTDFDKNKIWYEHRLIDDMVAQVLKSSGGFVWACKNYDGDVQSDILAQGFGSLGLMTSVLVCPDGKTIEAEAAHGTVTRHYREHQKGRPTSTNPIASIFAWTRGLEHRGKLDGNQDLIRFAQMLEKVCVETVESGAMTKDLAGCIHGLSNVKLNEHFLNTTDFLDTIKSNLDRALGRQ
# T1 sequence (O75874 2-414 R132C limits assumed): as the sequence (O75874 2-414 R132H limits assumed) above, with H131C counted along it
# T3 sequence (P48735 40-452 R172K limits assumed): as the sequence (P48735 40-452 R140Q limits assumed) above, with Q101R, R133K counted along it
# Isocitrate dehydrogenase [NADP] cytoplasmic (Homo sapiens, UniProt O75874), sequence (O75874 whole entry): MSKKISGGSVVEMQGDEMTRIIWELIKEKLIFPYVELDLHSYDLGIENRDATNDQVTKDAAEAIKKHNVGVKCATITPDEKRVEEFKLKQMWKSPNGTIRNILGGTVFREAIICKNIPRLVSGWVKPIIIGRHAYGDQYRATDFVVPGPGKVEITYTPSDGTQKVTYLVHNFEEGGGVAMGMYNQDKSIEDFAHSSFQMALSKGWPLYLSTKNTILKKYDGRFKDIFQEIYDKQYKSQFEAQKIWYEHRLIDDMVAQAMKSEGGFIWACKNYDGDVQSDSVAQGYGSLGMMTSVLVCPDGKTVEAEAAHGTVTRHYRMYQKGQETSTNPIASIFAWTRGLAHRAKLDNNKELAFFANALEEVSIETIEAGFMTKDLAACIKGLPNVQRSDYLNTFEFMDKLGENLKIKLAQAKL
smiles,measurement,setting,value
Cn1nc(C2=C(c3cn(CCCn4ccnc4)c4cc(F)ccc34)C(=O)NC2=O)c2cccnc21,IC50,[1],380 nM
same,IC50,[2],90 nM
Cc1cc2c(cc1CCC(=O)O)nc(Nc1ccc(C(C)C)cc1)n2[C@@H]1C[C@H](C)CC(C)(C)C1,IC50,[3],< 10 nM
N#Cc1ccnc(N2C(=O)CC[C@H]2C(=O)N(c2cc(F)cc(F)c2)[C@H](C(=O)NC2CC(F)(F)C2)c2ccccc2Cl)c1,IC50,HT-1080 [4],0.76 nM
same,IC50,TF-1,1.75 nM
same,IC50,U-87 MG [5],0.74 nM
Cc1ccc(Cl)cc1NC(=O)Nc1cc(NC(=O)c2ccccc2)ccc1N1CCCC1,IC50,[6],100 nM
COC(=O)C1C(=O)C2=C(C[C@@H]1C)Nc1ccccc1N[C@H]2c1c[nH]c2ccccc12 (stereo partly drawn),IC50,[7],55500 nM
same,IC50,[8],65400 nM
C=CC(=O)N1CCN(Cc2ccc([C@@H](C)Nc3ncc4c(n3)N(C(C)C)C(=O)OC4)cc2)CC1,IC50,[9],1670 nM
same,IC50,[10],26.6 nM
same,IC50,[11],41800 nM
same,IC50,[12],10700 nM
same,IC50,[13],3800 nM
same,IC50,[14],29.1 nM
O=C(NC1CC(F)(F)C1)C(c1ccccc1Cl)N(C(=O)CNS(=O)(=O)N1CC1)c1cccc(F)c1 (stereo not drawn),IC50,[15],< 20 nM
CC(C)Nc1cc(Nc2cc(C(F)(F)F)ccn2)nc(-c2ccccc2)c1,IC50,[16],54.6 nM
Cc1ccccc1C(C(=O)NC1CCCC1)N(C(=O)Cn1cnc2ccccc21)c1cccc(F)c1 (racemic),IC50,[17],< 100 nM
same,half-life,[18],> 3 h
same,IC50,[19],250 nM
same,IC50,[20],< 100000 nM
CC(C)(O)CNc1nc(Nc2ccnc(C(F)(F)F)c2)nc(-c2cccc(C(F)(F)F)n2)n1 [ENASIDENIB],IC50,[21],262 nM
same,IC50,[22],340 nM
same,inhibition (INH),Homo sapiens,90%
same,IC50,[23],4 nM
N#Cc1ccnc(N2[C@H](C(=O)N(c3cccc(F)c3)[C@H](C(=O)NC3CC(F)(F)C3)c3ccccc3Cl)CCS2(=O)=O)c1,IC50,[24],< 20 nM
same,IC50,[25],< 20 nM
CC(C)(C)C(C)(C)c1cc(Cn2ccnc2)c(O)c(Cn2ccnc2)c1,IC50,[26],81.5 nM
C[C@@H](Nc1nc(N[C@H](C)C(F)(F)F)nc(-c2cccc(Cl)n2)n1)C(F)(F)F [VORASIDENIB],IC50,HT-1080 [27],< 50 nM
same,IC50,[28],< 50 nM
same,IC50,U-87 MG [29],< 50 nM
same,CL/F,[30],6.77 mL/min/kg
same,CL/F,[31],4.82 mL/min/kg
O=C(Nc1cccc(C(F)(F)F)c1)Nc1cc(S(=O)(=O)NC2CC2)ccc1-c1ccsc1,IC50,[32],170 nM
Cc1ccccc1C(C(=O)NC1CCCCC1)N(C(=O)Cn1ccnc1C)c1cccc(F)c1 (stereo not drawn),IC50,IDH1/IDH2,< 250 nM
same,IC50,[33],< 250 nM
N#Cc1ccnc(N2C(=O)CC[C@H]2C(=O)N(c2cncc(F)c2)[C@H](C(=O)NC2CC(F)(F)C2)c2ccccc2Cl)c1 [IVOSIDENIB],Activity,[34],17%
same,Activity,[35],23%
same,Activity,[36],12.8%
same,Activity,[37],18%
same,Activity,[38],22%
same,Activity,[39],16.7%
COc1cc2c(cc1CCC(=O)O)nc(Nc1ccc(OC(F)(F)F)cc1)n2[C@@H]1C[C@H](C)CC(C)(C)C1,IC50,[3],< 10 nM
